± gives the uncertainty stated by the source.
Assays:
Conditions in all cases: lysate: 5-cell-line mix (COLO-205, K562, SK-N-BE(2), MV-4-11, OVCAR-8)
FECH = target: T1, FECH (UniProt P22830); assay: apparent Kd (Kinobeads competition)
T1 sequence (whole entry): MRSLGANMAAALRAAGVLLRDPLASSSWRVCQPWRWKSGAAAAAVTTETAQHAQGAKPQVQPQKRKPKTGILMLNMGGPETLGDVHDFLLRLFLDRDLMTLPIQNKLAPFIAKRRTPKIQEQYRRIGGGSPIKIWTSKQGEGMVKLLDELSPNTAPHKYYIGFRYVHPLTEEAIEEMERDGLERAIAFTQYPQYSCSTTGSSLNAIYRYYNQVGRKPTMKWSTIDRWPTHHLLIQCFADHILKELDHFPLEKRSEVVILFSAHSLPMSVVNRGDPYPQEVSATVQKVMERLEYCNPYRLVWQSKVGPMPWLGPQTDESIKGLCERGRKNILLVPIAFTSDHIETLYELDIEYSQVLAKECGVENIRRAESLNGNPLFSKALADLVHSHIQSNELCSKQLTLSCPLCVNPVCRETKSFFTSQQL

UNC119 [1] = target: UNC119 (UniProt Q13432); assay: apparent Kd (Kinobeads competition)
BCR [2] = target: T2, BCR (UniProt P11274); assay: apparent Kd (Kinobeads competition)
T2 sequence (whole entry): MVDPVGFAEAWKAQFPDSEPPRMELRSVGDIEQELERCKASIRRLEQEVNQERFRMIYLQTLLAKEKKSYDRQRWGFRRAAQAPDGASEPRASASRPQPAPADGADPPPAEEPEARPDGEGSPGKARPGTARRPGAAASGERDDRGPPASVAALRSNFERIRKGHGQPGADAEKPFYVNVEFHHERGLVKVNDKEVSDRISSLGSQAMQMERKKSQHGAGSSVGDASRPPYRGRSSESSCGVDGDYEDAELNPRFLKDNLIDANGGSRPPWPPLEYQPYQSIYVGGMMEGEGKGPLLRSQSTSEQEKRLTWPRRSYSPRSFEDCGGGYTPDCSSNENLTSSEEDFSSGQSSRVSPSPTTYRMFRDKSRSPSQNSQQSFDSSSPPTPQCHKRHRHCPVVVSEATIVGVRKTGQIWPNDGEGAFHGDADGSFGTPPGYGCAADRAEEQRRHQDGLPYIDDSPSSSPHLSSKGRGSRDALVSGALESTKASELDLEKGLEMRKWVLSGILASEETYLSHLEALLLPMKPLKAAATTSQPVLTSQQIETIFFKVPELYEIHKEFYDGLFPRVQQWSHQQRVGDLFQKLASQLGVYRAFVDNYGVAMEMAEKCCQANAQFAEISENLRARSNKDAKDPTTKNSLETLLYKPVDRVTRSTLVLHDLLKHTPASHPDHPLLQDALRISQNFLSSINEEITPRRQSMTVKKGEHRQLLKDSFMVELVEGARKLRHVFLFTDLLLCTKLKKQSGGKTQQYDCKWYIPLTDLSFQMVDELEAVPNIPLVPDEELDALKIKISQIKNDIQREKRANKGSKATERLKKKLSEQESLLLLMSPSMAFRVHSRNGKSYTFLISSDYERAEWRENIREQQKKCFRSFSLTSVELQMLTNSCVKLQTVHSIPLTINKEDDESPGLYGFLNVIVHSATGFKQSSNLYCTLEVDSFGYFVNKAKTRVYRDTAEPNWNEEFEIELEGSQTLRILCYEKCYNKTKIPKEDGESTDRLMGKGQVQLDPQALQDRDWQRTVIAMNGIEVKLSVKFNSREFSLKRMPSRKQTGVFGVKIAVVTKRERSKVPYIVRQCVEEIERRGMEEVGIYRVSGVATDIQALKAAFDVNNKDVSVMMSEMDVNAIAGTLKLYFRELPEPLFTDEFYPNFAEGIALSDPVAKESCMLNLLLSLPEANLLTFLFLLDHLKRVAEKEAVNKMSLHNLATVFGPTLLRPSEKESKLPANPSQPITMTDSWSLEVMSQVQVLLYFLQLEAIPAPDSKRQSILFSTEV

PAG1 [3] = target: T3, PAG1 (UniProt Q9NWQ8); assay: apparent Kd (Kinobeads competition)
T3 sequence (whole entry): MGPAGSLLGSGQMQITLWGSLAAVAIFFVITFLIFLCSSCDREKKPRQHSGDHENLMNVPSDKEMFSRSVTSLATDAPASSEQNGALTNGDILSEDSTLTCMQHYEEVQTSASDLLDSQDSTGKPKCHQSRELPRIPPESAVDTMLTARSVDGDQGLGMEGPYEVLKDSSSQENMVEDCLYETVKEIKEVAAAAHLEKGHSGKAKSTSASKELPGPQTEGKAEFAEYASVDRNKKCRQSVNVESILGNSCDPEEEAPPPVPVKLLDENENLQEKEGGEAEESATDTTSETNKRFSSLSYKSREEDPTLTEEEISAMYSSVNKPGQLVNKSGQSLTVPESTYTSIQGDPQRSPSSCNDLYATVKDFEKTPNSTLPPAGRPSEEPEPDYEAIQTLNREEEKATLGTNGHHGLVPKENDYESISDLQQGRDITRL

UNC119 [4] = target: UNC119 (UniProt Q13432); assay: EC50 for competition of Kinobead binding
BCR [5] = target: T2, BCR; assay: EC50 for competition of Kinobead binding
MAP4K3 = target: T4, MAP4K3 (UniProt Q8IVH8); assay: EC50 for competition of Kinobead binding
T4 sequence (whole entry): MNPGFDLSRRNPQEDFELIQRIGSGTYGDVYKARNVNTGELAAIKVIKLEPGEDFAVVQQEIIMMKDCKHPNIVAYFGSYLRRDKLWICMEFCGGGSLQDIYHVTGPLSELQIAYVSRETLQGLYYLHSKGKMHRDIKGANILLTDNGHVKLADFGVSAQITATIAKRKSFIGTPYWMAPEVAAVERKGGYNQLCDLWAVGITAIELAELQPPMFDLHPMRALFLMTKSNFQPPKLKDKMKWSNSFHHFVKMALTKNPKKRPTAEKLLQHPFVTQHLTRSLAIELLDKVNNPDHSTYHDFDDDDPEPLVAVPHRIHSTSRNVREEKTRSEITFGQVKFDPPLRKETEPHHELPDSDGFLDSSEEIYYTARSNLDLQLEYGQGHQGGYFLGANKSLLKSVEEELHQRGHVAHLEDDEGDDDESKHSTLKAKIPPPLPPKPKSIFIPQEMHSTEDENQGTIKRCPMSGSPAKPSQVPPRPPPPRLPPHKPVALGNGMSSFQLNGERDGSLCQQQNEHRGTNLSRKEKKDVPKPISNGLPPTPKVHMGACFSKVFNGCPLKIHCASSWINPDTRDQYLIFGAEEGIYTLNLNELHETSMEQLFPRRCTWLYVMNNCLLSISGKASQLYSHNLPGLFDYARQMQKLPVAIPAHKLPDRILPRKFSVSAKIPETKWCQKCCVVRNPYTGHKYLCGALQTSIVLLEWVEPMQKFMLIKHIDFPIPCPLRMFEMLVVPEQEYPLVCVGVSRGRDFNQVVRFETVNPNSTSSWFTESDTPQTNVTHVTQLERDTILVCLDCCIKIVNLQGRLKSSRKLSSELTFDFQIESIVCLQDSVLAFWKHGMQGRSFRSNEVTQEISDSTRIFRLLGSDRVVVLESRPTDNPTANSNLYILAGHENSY

PAG1 [6] = target: T3, PAG1; assay: EC50 for competition of Kinobead binding
ABL2 = ABL2 (UniProt P42684); assay: EC50 for competition of Kinobead binding
ABL2, sequence (P42684 whole entry): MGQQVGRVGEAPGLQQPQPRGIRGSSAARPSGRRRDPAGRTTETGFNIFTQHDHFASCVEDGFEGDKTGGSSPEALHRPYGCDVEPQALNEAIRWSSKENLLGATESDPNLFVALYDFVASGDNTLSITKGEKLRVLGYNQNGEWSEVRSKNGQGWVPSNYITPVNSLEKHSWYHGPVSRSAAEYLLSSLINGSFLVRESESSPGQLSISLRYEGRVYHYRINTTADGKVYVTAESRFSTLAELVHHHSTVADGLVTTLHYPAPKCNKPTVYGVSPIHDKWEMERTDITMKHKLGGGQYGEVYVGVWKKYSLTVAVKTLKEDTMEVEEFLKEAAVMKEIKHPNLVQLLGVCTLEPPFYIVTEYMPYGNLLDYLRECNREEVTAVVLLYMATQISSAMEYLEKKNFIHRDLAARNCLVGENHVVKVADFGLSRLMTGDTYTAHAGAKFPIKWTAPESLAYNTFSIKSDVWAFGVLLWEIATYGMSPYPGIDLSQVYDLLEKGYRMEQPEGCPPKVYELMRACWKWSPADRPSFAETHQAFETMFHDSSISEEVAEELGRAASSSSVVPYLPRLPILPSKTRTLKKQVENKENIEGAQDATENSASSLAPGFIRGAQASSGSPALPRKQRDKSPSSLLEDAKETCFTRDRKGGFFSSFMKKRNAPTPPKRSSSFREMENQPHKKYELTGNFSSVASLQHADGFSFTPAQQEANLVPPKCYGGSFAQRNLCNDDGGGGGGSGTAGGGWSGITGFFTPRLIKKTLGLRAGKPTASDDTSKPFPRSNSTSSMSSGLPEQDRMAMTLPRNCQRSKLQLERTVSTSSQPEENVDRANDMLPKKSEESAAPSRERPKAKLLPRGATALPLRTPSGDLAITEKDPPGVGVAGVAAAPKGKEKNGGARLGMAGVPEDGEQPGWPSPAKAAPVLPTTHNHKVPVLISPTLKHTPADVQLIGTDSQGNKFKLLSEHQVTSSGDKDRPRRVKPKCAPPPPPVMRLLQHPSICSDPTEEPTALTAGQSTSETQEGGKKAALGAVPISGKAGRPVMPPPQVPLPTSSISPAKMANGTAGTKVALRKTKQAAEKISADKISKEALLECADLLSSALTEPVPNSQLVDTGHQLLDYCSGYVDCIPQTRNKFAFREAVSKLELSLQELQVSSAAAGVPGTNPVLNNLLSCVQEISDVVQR

ABL1 = ABL1 (UniProt P00519); assay: EC50 for competition of Kinobead binding
ABL1, sequence (P00519 whole entry): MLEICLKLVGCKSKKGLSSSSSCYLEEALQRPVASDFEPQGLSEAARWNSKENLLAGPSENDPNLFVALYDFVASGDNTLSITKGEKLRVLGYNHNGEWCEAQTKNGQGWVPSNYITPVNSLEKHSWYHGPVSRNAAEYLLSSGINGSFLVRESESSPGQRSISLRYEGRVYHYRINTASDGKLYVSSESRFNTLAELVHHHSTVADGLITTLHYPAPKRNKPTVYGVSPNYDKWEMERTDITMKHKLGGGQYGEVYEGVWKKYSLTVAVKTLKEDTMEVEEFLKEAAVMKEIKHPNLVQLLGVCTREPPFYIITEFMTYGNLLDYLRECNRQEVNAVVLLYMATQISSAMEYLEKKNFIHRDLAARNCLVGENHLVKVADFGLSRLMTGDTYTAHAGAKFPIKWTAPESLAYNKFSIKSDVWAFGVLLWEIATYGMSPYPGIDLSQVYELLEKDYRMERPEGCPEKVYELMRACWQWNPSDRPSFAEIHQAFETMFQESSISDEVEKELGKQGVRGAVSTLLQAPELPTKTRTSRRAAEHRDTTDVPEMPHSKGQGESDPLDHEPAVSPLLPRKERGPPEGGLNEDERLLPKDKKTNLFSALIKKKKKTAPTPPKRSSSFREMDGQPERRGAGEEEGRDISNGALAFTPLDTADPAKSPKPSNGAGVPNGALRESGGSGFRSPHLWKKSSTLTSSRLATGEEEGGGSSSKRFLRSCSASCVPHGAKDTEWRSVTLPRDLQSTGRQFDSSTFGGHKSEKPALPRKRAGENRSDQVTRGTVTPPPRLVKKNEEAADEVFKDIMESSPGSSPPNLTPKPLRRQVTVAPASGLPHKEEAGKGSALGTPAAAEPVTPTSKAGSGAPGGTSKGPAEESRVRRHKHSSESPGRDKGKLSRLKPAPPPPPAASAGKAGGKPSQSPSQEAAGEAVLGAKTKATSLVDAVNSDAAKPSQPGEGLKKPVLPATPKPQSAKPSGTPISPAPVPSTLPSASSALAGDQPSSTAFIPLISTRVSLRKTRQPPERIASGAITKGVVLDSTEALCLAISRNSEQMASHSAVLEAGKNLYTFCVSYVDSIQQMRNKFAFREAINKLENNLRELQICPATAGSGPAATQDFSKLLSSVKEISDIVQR

FRK = FRK (UniProt P42685); assay: EC50 for competition of Kinobead binding
FRK, sequence (P42685 whole entry): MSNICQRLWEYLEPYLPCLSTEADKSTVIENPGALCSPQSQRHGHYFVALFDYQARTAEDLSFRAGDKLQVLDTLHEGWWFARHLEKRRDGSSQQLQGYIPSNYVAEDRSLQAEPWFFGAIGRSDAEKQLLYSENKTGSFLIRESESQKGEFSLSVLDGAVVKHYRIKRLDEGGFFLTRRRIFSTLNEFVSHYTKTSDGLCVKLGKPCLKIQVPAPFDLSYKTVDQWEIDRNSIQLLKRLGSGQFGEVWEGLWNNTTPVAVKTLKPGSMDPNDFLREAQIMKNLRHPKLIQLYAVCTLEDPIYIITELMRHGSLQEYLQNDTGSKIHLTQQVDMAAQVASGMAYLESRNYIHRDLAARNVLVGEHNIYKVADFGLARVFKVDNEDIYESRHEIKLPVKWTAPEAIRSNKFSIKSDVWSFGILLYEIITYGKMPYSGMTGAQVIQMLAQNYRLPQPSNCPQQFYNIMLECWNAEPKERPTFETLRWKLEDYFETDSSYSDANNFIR

BTK = BTK (UniProt Q06187); assay: EC50 for competition of Kinobead binding
BTK, sequence (Q06187 whole entry): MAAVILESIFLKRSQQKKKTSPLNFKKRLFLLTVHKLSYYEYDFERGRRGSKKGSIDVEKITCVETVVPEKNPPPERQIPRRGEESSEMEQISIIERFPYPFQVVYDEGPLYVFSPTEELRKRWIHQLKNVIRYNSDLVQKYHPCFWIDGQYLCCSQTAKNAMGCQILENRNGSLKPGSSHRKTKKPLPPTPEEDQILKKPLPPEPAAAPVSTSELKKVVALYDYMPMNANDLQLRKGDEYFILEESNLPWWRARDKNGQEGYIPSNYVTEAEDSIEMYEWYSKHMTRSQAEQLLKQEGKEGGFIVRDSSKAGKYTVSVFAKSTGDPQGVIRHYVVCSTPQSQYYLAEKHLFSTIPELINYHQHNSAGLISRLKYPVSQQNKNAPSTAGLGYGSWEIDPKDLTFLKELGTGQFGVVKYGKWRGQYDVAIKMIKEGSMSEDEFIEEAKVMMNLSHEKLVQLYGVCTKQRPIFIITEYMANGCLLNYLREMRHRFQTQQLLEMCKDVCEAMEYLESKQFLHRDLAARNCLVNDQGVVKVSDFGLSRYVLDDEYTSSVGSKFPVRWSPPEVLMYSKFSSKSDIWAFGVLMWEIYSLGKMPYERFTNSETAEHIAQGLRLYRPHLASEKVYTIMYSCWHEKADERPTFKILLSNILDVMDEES

With `COc1ccc2c(C(=O)Nc3ccc(NC(=O)c4nn(C5CCN(C(=O)CC(C)(C)C#N)CC5)c5ccc(F)cc45)cc3Cl)cnn2c1` [Src Inhibitor 3] the Kd (FECH) was 6.35 µM, the Kd (UNC119 [1]) was 0.0241 µM and the Kd (BCR [2]) was 0.127 µM. For the same compound, the Kd (PAG1 [3]) was 0.0484 µM, the EC50 (UNC119 [4]) was 0.904 ± 0.25 µM and the EC50 (BCR [5]) was 0.79 ± 0.43 µM. The EC50 (MAP4K3) was 14.3 ± 28 µM, the EC50 (PAG1 [6]) was 0.0709 ± 0.011 µM and the EC50 (ABL2) was 0.332 ± 0.17 µM. For the same compound, the EC50 (ABL1) was 1.53 ± 2.6 µM, the EC50 (FRK) was 17.6 ± 34 µM and the EC50 (BTK) was 4.25 ± 2.7 µM.
